# Source: the Kinase Knowledgebase extract (Sharma et al. 2016)
# Target: CDK2 (human) (UniProt P24941)
# Assay: Enzyme Assay
row,IC50 [µM],Structure (SMILES)
1,< 100,CCOc1ccc(Nc2c(C)c(N[C@H]3CC[C@H](N)CC3)nc3c(C(=O)Nc4ccccc4)cnn23)cc1
2,< 100,Cc1c(N[C@H]2CC[C@H](N)CC2)nc2ccnn2c1Nc1ccc2ncsc2c1
3,< 100,Cc1c(N[C@H]2CC[C@H](N)CC2)nc2ccnn2c1Nc1ccc(-c2ccccc2O)cc1
4,< 100,CNC(=O)c1ccc(Nc2c(C)c(N[C@H]3CC[C@H](N)CC3)nc3ccnn23)cc1
5,< 100,CCOc1ccc(Nc2c(C)c(NC3CCCNC3)nc3c(C4CCCCC4)cnn23)cc1 (stereo unspecified)
6,< 100,Cc1c(N[C@H]2CC[C@H](N)CC2)nc2ccnn2c1Nc1ccc(C(F)(F)F)cc1
7,< 100,Cc1c(N[C@H]2CC[C@H](N)CC2)nc2ccnn2c1Nc1ccc(OCC2CCCCN2)cc1 (stereo partly specified)
8,< 100,Cc1c(NC2CCCNC2)nc2ccnn2c1Nc1ccc(-c2cccc(N)c2)cc1 (stereo unspecified)
9,< 100,Cc1c(NC2CCCNC2)nc2ccnn2c1Nc1ccccc1F (stereo unspecified)
10,< 100,Cc1c(N[C@H]2CC[C@H](N)CC2)nc2ccnn2c1Nc1cccc(I)c1
11,< 100,Cc1c(N[C@H]2CC[C@H](N)CC2)nc2ccnn2c1Nc1ccc(OCCc2ccccn2)cc1
12,< 100,CCc1c(NC2CCCNC2)nc2c(Cl)cnn2c1Nc1ccc(I)cc1 (stereo unspecified)
13,< 100,CCOc1ccc(Nc2c(C)c(N[C@H]3CC[C@H](N)CC3)nc3c(NC)cnn23)cc1
14,< 100,CCOc1ccc(Nc2c(C)c(N[C@H]3CC[C@H](N)CC3)nc3c(C(=O)Nc4ccccn4)cnn23)cc1
15,< 100,CCc1c(N[C@H]2CC[C@H](N)CC2)nc2ccnn2c1Nc1ccc(OC)cc1
16,< 100,C=CCNc1c(-c2ccccc2)c(N[C@H]2CC[C@H](N)CC2)nc2ccnn12
17,< 100,CCOc1ccc(Nc2c(OC)c(NC3CCCNC3)nc3ccnn23)cc1 (stereo unspecified)
18,< 100,Cc1c(N[C@H]2CC[C@H](N)CC2)nc2ccnn2c1Nc1ccc(O)cc1
19,< 100,CCc1c(N[C@H]2CC[C@H](N)CC2)nc2ccnn2c1Nc1ccc(F)c(Cl)c1
20,< 100,Cc1c(N[C@H]2CC[C@H](N)CC2)nc2ccnn2c1Nc1cccc(OCCn2ccnc2)c1
21,< 100,Cc1c(N[C@H]2CC[C@H](N)CC2)nc2ccnn2c1Nc1ccc(OCCC2CCCCC2)cc1
22,< 100,CCOc1ccc(Nc2c(C)c(N[C@H]3CC[C@H](N)CC3)nc3c(C(C)C)cnn23)cc1
23,< 100,CCc1c(NC2CCCNC2)nc2ccnn2c1Nc1ccc(F)c(Cl)c1 (stereo unspecified)
24,< 100,Cc1c(N[C@H]2CC[C@H](N)CC2)nc2ccnn2c1Nc1cccc(OCc2ccccc2)c1

row,IC50 [µM],Structure (SMILES)
1,< 100,COc1ccc(Nc2c(CCCO)c(N[C@H]3CC[C@H](N)CC3)nc3ccnn23)cc1
2,< 100,Cc1c(N[C@H]2CC[C@H](N)CC2)nc2ccnn2c1Nc1ccc(OC(C)C)cc1
3,< 100,Cc1c(N[C@H]2CC[C@H](N)CC2)nc2ccnn2c1Nc1ccc(OCC2CCCCC2)cc1
4,< 100,Cc1c(N[C@H]2CC[C@H](N)CC2)nc2ccnn2c1Nc1cccc(CO)c1
5,< 100,CC1=[SH]c2cc(Nc3c(C)c(N[C@H]4CC[C@H](N)CC4)nc4ccnn34)ccc2N1
6,< 100,C=C(C)CNc1c(CC)c(N[C@H]2CC[C@H](N)CC2)nc2ccnn12
7,< 100,COc1ccc(Nc2c(CCCO)c(N[C@H]3CC[C@H](N)CC3)nc3ccnn23)cc1OC
8,< 100,Cc1c(N[C@H]2CC[C@H](N)CC2)nc2ccnn2c1Nc1ccc(OC(F)(F)F)c(Cl)c1
9,< 100,CCOc1ccc(-c2ccc(Nc3c(C)c(N[C@H]4CC[C@H](N)CC4)nc4ccnn34)cc2)cc1
10,< 100,CCc1c(N[C@H]2CC[C@H](N)CC2)nc2ccnn2c1Nc1ccc(Oc2ccc(C)cc2)cc1
11,< 100,Cc1c(N[C@H]2CC[C@H](N)CC2)nc2c(F)cnn2c1Nc1ccc(I)cc1
12,< 100,Cc1c(N[C@H]2CC[C@H](N)CC2)nc2ccnn2c1Nc1ccc(I)cc1
13,< 100,CC(=O)c1ccc(-c2ccc(Nc3c(C)c(N[C@H]4CC[C@H](N)CC4)nc4ccnn34)cc2)s1
14,< 100,CCc1c(N[C@H]2CC[C@H](N)CC2)nc2ccnn2c1Nc1ccccc1OC
15,< 100,COCCOc1ccc(Nc2c(C)c(N[C@H]3CC[C@H](N)CC3)nc3ccnn23)cc1
16,< 100,Cc1c(N[C@H]2CC[C@H](N)CC2)nc2ccnn2c1Nc1ccc(-c2cccc(N(C)C)c2)cc1
17,< 100,CCc1c(N[C@H]2CC[C@H](N)CC2)nc2ccnn2c1Nc1ccccc1
18,< 100,Cc1c(N[C@H]2CC[C@H](N)CC2)nc2ccnn2c1Nc1ccc(OCc2ccc(N)cc2)cc1
19,< 100,Cc1c(N[C@H]2CC[C@H](N)CC2)nc2ccnn2c1Nc1ccc(-c2ccccc2C(F)(F)F)cc1
20,< 100,Cc1c(N[C@H]2CC[C@H](N)CC2)nc2ccnn2c1Nc1ccc(OCC2CCCC2)cc1
21,< 100,Cc1c(N[C@H]2CC[C@H](N)CC2)nc2ccnn2c1Nc1ccc(OCc2ccccc2)cc1
22,< 100,Cc1c(N[C@H]2CC[C@H](N)CC2)nc2ccnn2c1Nc1ccc(OCc2cccnc2)cc1
23,< 100,N[C@H]1CC[C@H](Nc2cc(Nc3ccc(F)c(Cl)c3)n3ncc(I)c3n2)CC1
24,< 100,Cc1c(N[C@H]2CC[C@H](N)CC2)nc2ccnn2c1Nc1ccc(C(=O)Nc2ccccc2)cc1

row,IC50 [µM],Structure (SMILES)
1,< 100,Cc1c(N[C@H]2CC[C@H](N)CC2)nc2ccnn2c1Nc1ccc(F)c(Cl)c1
2,< 100,Cc1c(N[C@H]2CC[C@H](N)CC2)nc2ccnn2c1Nc1ccc(-c2ccc(C(F)(F)F)cc2)cc1
3,< 100,CCCCC(=O)c1cnn2c(Nc3ccc(OCC)cc3)c(C)c(N[C@H]3CC[C@H](N)CC3)nc12
4,< 100,Cc1c(N[C@H]2CC[C@H](N)CC2)nc2ccnn2c1Nc1ccc(-c2ccsc2)cc1
5,< 100,N[C@H]1CC[C@H](Nc2cc(NCc3ccc(F)c(Cl)c3)n3ncc(Br)c3n2)CC1
6,< 100,CCc1c(N[C@H]2CC[C@H](N)CC2)nc2ccnn2c1Nc1ccc(N2CCCCC2)cc1
7,< 100,COc1c(N[C@H]2CC[C@H](N)CC2)nc2ccnn2c1Nc1ccc(F)c(Cl)c1
8,< 100,CCOc1ccc(Nc2c(C)c(N[C@H]3CC[C@H](N)CC3)nc3c(S(C)(=O)=O)cnn23)cc1
9,< 100,Cc1c(N[C@H]2CC[C@H](N)CC2)nc2ccnn2c1Nc1ccc(C(=O)NC2CCCC2)cc1
10,< 100,Cc1c(N[C@H]2CC[C@H](N)CC2)nc2ccnn2c1Nc1ccc(N(C)C)cc1
11,< 100,Cc1c(N[C@H]2CC[C@H](N)CC2)nc2ccnn2c1Nc1ccc(-c2ccc(OC(F)(F)F)cc2)cc1
12,< 100,CCc1c(N[C@H]2CC[C@H](N)CC2)nc2ccnn2c1Nc1cccc(I)c1
13,< 100,COc1ccc(Nc2c(C)c(N[C@H]3CC[C@H](N)CC3)nc3ccnn23)cc1
14,< 100,CCOc1ccc(Nc2c(C)c(N[C@H]3CC[C@H](N)CC3)nc3c(C4CC4)cnn23)cc1
15,< 100,N#Cc1cnn2c(Nc3ccccc3Cl)cc(N[C@H]3CC[C@H](N)CC3)nc12
16,< 100,Cc1c(N[C@H]2CC[C@H](N)CC2)nc2ccnn2c1Nc1ccc(-c2ccoc2)cc1
17,< 100,COc1cccc(COc2ccc(Nc3c(C)c(N[C@H]4CC[C@H](N)CC4)nc4ccnn34)cc2)c1
18,< 100,N#Cc1cnn2c(Nc3ccc(F)c(Cl)c3)cc(N[C@H]3CC[C@H](N)CC3)nc12
19,< 100,CCc1c(N[C@H]2CC[C@H](N)CC2)nc2ccnn2c1Nc1ccc(OCc2ccccc2)cc1
20,< 100,CCc1c(N[C@H]2CC[C@H](N)CC2)nc2ccnn2c1Nc1cccc(Cl)c1
21,< 100,Cc1c(N[C@H]2CC[C@H](N)CC2)nc2ccnn2c1Nc1ccc(-c2cc3ccccc3s2)cc1
22,< 100,Cc1c(N[C@H]2CC[C@H](N)CC2)nc2ccnn2c1Nc1ccc(OCCn2ccnc2)cc1
23,< 100,Cc1c(N[C@H]2CC[C@H](N)CC2)nc2ccnn2c1Nc1ccc(-c2cccc(Cl)c2)cc1
24,< 100,Cc1c(N[C@H]2CC[C@H](N)CC2)nc2ccnn2c1Nc1ccccc1

row,IC50 [µM],Structure (SMILES)
1,< 100,Cc1c(N[C@H]2CC[C@H](N)CC2)nc2ccnn2c1NCC(C)(C)C
2,< 100,CCc1c(N[C@H]2CC[C@H](N)CC2)nc2ccnn2c1Nc1ccc(OC)c(C(F)(F)F)c1
3,< 100,CCOc1ccc(Nc2cc(N[C@H]3CC[C@H](N)CC3)nc3c(I)cnn23)cc1
4,< 100,N[C@H]1CC[C@H](Nc2cc(Nc3ccc(F)c(Cl)c3)n3ncc(Br)c3n2)CC1
5,< 100,Cc1c(N[C@H]2CC[C@H](N)CC2)nc2ccnn2c1Nc1ccc(OCC2CCCO2)cc1 (stereo partly specified)
6,< 100,Cc1c(N[C@H]2CC[C@H](N)CC2)nc2ccnn2c1Nc1ccc(OC2CCN(C)CC2)cc1
7,< 100,CCc1c(N[C@H]2CC[C@H](N)CC2)nc2ccnn2c1Nc1ccccc1Cl
8,< 100,Cc1c(N[C@H]2CC[C@H](N)CC2)nc2ccnn2c1Nc1ccc(-c2ccc(Cl)cc2)cc1
9,< 100,CCOc1ccc(Nc2c(C)c(N[C@H]3CC[C@H](N)CC3)nc3c(C(=O)Nc4ccncc4)cnn23)cc1
10,< 100,Cc1c(N[C@H]2CC[C@H](N)CC2)nc2ccnn2c1Nc1ccc(-c2cccc(C(F)(F)F)c2)cc1
11,< 100,N[C@H]1CC[C@H](Nc2cc(Nc3ccccc3Cl)n3ncc(I)c3n2)CC1
12,< 100,CCOc1ccc(Nc2c(C)c(N[C@H]3CC[C@H](N)CC3)nc3c(CC)cnn23)cc1
13,< 100,CCCc1c(N[C@H]2CC[C@H](N)CC2)nc2ccnn2c1Nc1ccc(F)c(Cl)c1
14,< 100,Cc1c(NC2CCCNC2)nc2ccnn2c1Nc1ccc(I)cc1 (stereo unspecified)
15,< 100,CCOc1ccc(Nc2c(C)c(N[C@H]3CC[C@H](N)CC3)nc3c(N)cnn23)cc1
16,< 100,Cc1c(N[C@H]2CC[C@H](N)CC2)nc2ccnn2c1Nc1ccc(-c2cncnc2)cc1
17,< 100,Cc1c(N[C@H]2CC[C@H](N)CC2)nc2ccnn2c1Nc1ccc2c(c1)OCCO2
18,< 100,Cc1ccccc1COc1cccc(Nc2c(C)c(N[C@H]3CC[C@H](N)CC3)nc3ccnn23)c1
19,< 100,CCCNc1c(C)c(N[C@H]2CC[C@H](N)CC2)nc2ccnn12
20,< 100,Cc1c(N[C@H]2CC[C@H](N)CC2)nc2ccnn2c1Nc1ccc(OC2CCNC2)cc1 (stereo partly specified)
21,< 100,Cc1c(N[C@H]2CC[C@H](N)CC2)nc2ccnn2c1Nc1cccc(OCc2cccnc2)c1
22,< 100,COc1cccc(COc2cccc(Nc3c(C)c(N[C@H]4CC[C@H](N)CC4)nc4ccnn34)c2)c1
23,< 100,Cc1c(N[C@H]2CC[C@H](N)CC2)nc2ccnn2c1Nc1cccc(O)c1
24,< 100,Cc1c(N[C@H]2CC[C@H](N)CC2)nc2ccnn2c1Nc1ccc(-c2ccc(N)cc2)cc1
